Test results taken from article doi:10.1101/2025.11.02.686125v3 (bioRxiv, 2025).
In brackets after ≈: the same amount, converted by molar mass. Like-named read-outs stand apart in the source and are kept apart here. Where a SMILES comes first, the peptide text is derived from it. Bridges are numbered along the chain shown (N, C = ends). [ ]: non-standard residue; d: D form. The star is where a group is joined. NMeT = CN[C@H](C(=O)O)[C@@H](C)O; dNMeL = CN[C@H](CC(C)C)C(=O)O; NMeV = CN[C@H](C(=O)O)C(C)C; X1 = COC(=O)[C@H](N)CS*; X2 = N[C@H](CS*)C(=O)O

Tests used:
Mav strain MAH11 = details: 40 h

Row | Compound | Luminescence after benzyl alcohol pretreatment (Msm (luc) cells) | Luminescence after spermidine pretreatment (Msm (luc) cells) | MIC Mtb (Mtb strain mc^26206; strain mc^26206, 40 h) [µM] | MIC Mav (Mav strain MAH11) [µM] | MIC Mtb (Mtb strain mc^26206) [µM]
1 | O=C(O)[C@H]1CSC(c2nc3ccc(O)cc3s2)=N1 [D-luciferin] | modestly reduced the accumulation | significant loss of signal | – | – | –
2 | CC(=O)N[C@@H](CSSC[C@@H](N)C(=O)O)C(=O)N(C)[C@H](C(=O)N1CCC[C@H]1C(=O)N(C)[C@@H]1C(=O)N[C@@H](CC(C)C)C(=O)N2CCC[C@H]2C(=O)N[C@@H](CC(C)C)C(=O)N(C)[C@@H](C(C)C)C(=O)N2CCC[C@H]2C(=O)N(C)[C@H](CC(C)C)C(=O)NCC(=O)O[C@@H]1C)C(C)C [cys-GM] (Ac-C(X2)[NMeV]P[NMeT]LPL[NMeV]P[dNMeL]G; ester 4-C) | – | – | > 32 | > 32 | –
3 | COC(=O)[C@H](N)CSSC[C@H](NC(C)=O)C(=O)N(C)[C@H](C(=O)N1CCC[C@H]1C(=O)N(C)[C@@H]1C(=O)N[C@@H](CC(C)C)C(=O)N2CCC[C@H]2C(=O)N[C@@H](CC(C)C)C(=O)N(C)[C@@H](C(C)C)C(=O)N2CCC[C@H]2C(=O)N(C)[C@H](CC(C)C)C(=O)NCC(=O)O[C@@H]1C)C(C)C [cys-ME-GM] (Ac-C(X1)[NMeV]P[NMeT]LPL[NMeV]P[dNMeL]G; ester 4-C) | – | – | – | 4 (≈ 5.29 µg/mL) | 2 (≈ 2.64 µg/mL)
